Test results as given in patent US20240417404A1, “CRYSTALLINE FORMS OF N-[4-[4-(4-MORPHOLINYL)-7H-PYRROLO[2,3-d]PYRIMIDIN-6-YL]PHENYL]-4-[[3(R)-[(1-OXO-2-PROPEN-1-YL)AMINO]-1-[sequence]]METHYL]-2-PYRIDINECARBOXAMIDE AS IRREVERSIBLE INHIBITORS OF MENIN-MLL INTERACTION” (BIOMEA FUSION, INC., priority 2023, published 2024).
Entries after “also recorded” stand apart in the source; their conditions may differ.

Columns and labels:
[1] = tested on: human pancreatic islet beta cells; test: Beta cell proliferation in human islet microtissues; format: cell-based
Experimental: Human islet microtissues were aggregated for 5 days and then released into ultra-low attachment plates. Half of the plates were maintained in standard culture medium (5.5 mM glucose), and half were cultured in high-glucose culture medium (GTX, 8 mM glucose) starting at Day 6, for the duration of the whole experiment. Starting on Day 9 (after 3 days of GTX pre-treatment for the relevant plates), dosing with compounds was initiated, using a Tecan D300e Digital Dispenser. DMSO was normalized by volume across all wells. Media were exchanged and compounds were redosed every 2-3 days throughout the experiment. Compound dosing was randomized; to avoid compound cross-contamination between wells, all medium exchanges were performed using 96-well deep well plates with pipette tip exchange.
FIG. 32 provides human pancreatic islet beta cell proliferation on Day 14 and Day 21. In FIG. 32, A is ATP content; B is proliferating beta cell fraction; and C is beta cell fraction. Upper graphs are standard media, and lower graphs are high glucose media. […]
Individual islet microtissues can be cultured in 96-well culture plates and maintained in the presence of Compound 10, a representative irreversible menin-MLL inhibitor, at the appropriate concentration. […] Following 2 or more weeks of culturing, proliferation of beta cells is monitored via immunofluorescence staining for appropriate markers. […]

[2] = tested on: streptozotocin (STZ) induced type II diabetes in Wistar Han rats; test: Glycemic control in streptozotocin-induced diabetic rats, 16-day dosing; format: in vivo, rat
Experimental: The present example provides the ability of Compound 10 to restore glycemic control to streptozotocin (STZ) induced type II diabetes in Wistar Han rats. Fahmy et al., 2017, World J. Pharm. Med. Res. 3(3):37-39.
Control and test compounds were stored at 4° C. and prepared weekly as needed. The vehicle for positive control pioglitazone was 0.25% carboxymethylcellulose and 1% Tween® 80 in reverse osmosis deionized water. The vehicle for Compound 10 was 10% DMSO, 10% Solutol HS 15, and 80% (10% hydroxypropyl-β-cyclodextrin in 50 mM citrate buffer at pH 3.0). The vehicle for streptozotocin pretreatment was 0.1 M sodium citrate pH 4.5.
On Day −3, twenty-four Wistar Han rats (plus eight spare Wistar Han rats) were measured for body weight and non-fasting glucose. Starting on Day −42, D12451 Research Diet was provided ad libitum throughout the study, except during designated procedures, as was water. In order to minimize the effects of stress on blood glucose and body, all animals including the spares received daily sham doses with phosphate buffered saline pH 7.2 (dose volume 5 mL/kg) via gavage beginning on Study Day −5 to Day −1. 20% Glucose in drinking water (200 g/L) was provided ad libitum for 24 hr after streptozotocin injection on Day −14 and Day −7.
On Days −14 and −7, streptozotocin was administered at 30 mg/kg/day QD intraperitoneally. Starting on Day 1, control and test compound were administered on the following schedule.
On Days −7 to −1 and on Days 1, 8, and 14 non-fasting blood glucose was measured. On Day 15, an oral glucose tolerance test was administered. The animals were weighed and the animals were placed in clean cages without food. Access to water was provided throughout the procedure. The animals were fasted for five hours and a blood glucose measurement was determined. The animals were dosed via oral gavage with 2 g/kg glucose (10 mL/kg). Blood glucose was determined via venipuncture. The second drop of blood from the animal was placed on a hand-held glucometer (Abbott Alpha Trak) at the following times relative to the glucose dose: zero (just prior to glucose dose), 15, 30, 60, 90, and 120 min. Following the final blood glucose measurement, food was returned to the cages. On Day 17, 4-hour fasting glucose was measured. Serum samples were used to measure insulin by ELISA. Analysis was performed in one to three days of each collection. On Day 17, terminal blood collection was obtained at about 8 mL per animal and measured for blood glucose.
ZDF rats were treated daily with Compound 10, vehicle, or pioglitazone for sixteen days and monitored for an additional two weeks post-treatment until Day 29. STZ rat models were induced through pre-treatment of animals on a high-fat diet with low doses of streptozotocin at Day −14 and Day −7 prior to starting treatment at Day Zero until Day 16. ZDF and STZ rats were monitored for fasting blood glucose levels, oral glucose tolerance test (OGTT), insulin and C-peptide levels, HOMA-IR (Homeostatic Model Assessment of Insulin Resistance), blood lipemic levels, and body weight according to the schematic for each model below. ZDF rats were analyzed for indicated readouts for fifteen days post-treatment for OGTT at Day 29, and serum insulin and C-peptide at Day 31.
STZ Rat Model—three treatment groups 1. Vehicle; 2. Compound 10 at 175 mg/kg; and 3. Pioglitazone at 30 mg/kg; n=10 per group. […] Rats were monitored for the following parameters through dosing—body weight, blood glucose levels, and OGTT.

Which “human pancreatic islet beta cell proliferation (proliferating beta cell fraction)” value ([1]; Day 14 and Day 21, compared to control) does the source give for `C=CC(=O)N[C@@H]1CCCN(Cc2ccnc(C(=O)Nc3ccc(-c4cc5c(N6CCOCC6)ncnc5[nH]4)cc3)c2)C1` [Compound A, N-[4-[4-(4-morpholinyl)-7H-pyrrolo[2,3-d]pyrimidin-6-yl]phenyl]-4-[[3(R)-[(1-oxo-2-propen-1-yl)amino]-1-piperidinyl]methyl]-2-pyridinecarboxamide] here?
The value was “induced human pancreatic islet beta cells substantially compared to control”.

What about the beta-cell proliferation ([1]; glucose stress (8 mM glucose) vs standard glucose (5.5 mM)) of the same compound?
The beta-cell proliferation was “dose dependent increase in beta-cell proliferation under glucose stress condition, but not under standard glucose conditions”.

What about the “OGTT AUC reduction” value ([2]; STZ rats, Day 15, p<0.05) of the same compound?
The value was 41%.

What about the “insulin in the non-fasting and fasting states” value ([2]; STZ-induced rats (FIG. 20A, 20B)) of the same compound?
The value was “maintenance or reduction of insulin”.

What about the non-fasting glucose ([2]; STZ-induced rats, 175 mg/kg/day PO QD, compared to vehicle and control, listed as Compound 10, 175 mg/kg/day) of the same compound?
The non-fasting glucose was “reduction of glucose levels; also recorded: sharp reduction in non-fasting glucose”.

And the “insulin in the non-fasting state” value ([2]; STZ-induced rats, Days 1 and 8 (FIG. 19))?
The value was “significant reduction of insulin”.

And the “oral glucose tolerance test, glucose control” value ([2]; STZ-induced rats, after fifteen days of treatment)?
The value was “significant glucose control”.
